Patent publication US9566250B2, “Artificial tissue constructs comprising alveolar cells and methods for using the same” (SANOFI PASTEUR VAXDESIGN CORPORATION, priority 2007, dated 2017)

How the values were obtained:
CYP1A1 and CYP2B1 = test: Cytochrome P450 activity of bilayer construct after induction (7-ethoxy/7-pentoxy resorufin); format: cell-based, human; conditions: 24 h exposure, then 7-ethoxy or 7-pentoxy resorufin for 30 min; FIG. 8
Experimental: The effects of polycyclic carcinogens on cytochrome P450 activity in the artificial tissue constructs was also analyzed. Cytochrome P450 proteins are involved in the metabolism of many exogenous and endogenous chemicals, including drugs, steroids, and toxins. Cytochrome P450 induction is indicative of chemical metabolism. Cellular P450 enzyme activity of CYP1A1 & CYP2B1 families was studied. The bilayer constructs were prepared from biopsy samples of three different patients.
The mucosal construct was exposed to either 3-methylcholantherine and β-nitrophenol (FIG. 8) for 24 h, followed by 7-ethoxy resorufin (5-15 μM) or 7-pentoxy resorufin (5-15 μM) addition (for 30 min) to quantify CYP 1A1 and CYP 2B1 activity, respectively. A β-glucuronidase and arylsulfatase enzyme cocktail was then added to the samples and they were incubated for 2 h at 37° C. Fluorometric absorbance was then measured. A standard curve was prepared using resorufin to quantify the P450 activity. 3-Methylcholanthere and β-nitrophenol are known environmental carcinogens found in cigarette smoke and in airborne industrial byproducts.

[1] = tested on: alveolar artificial tissue construct cells; test: WST-1 cellular (mitochondrial) activity of treated construct cells; format: cell-based, human; conditions: stated in the WST-1 paragraph; 24-h treatments
Experimental: Cellular uptake of WST-1 was used to determine the mitochondrial activity of live cells. A spectroscopic reading of the collected/metabolized tetrazolium salt was performed to compare the cellular activity of hormone or bacterial particle treated cells to the non-treated control cells after 24-h treatments.

[2] = tested on: bilayer mucosal construct (primary human alveolar epithelial and endothelial cells); test: Cytokine production by bilayer alveolar mucosal construct (BioPlex/Luminex 22-plex); format: cell-based; conditions: corticosteroid addition for 24 h vs control; FIG. 7
Experimental: Immunosuppressant effects on the cultured mucosal construct were tested by the addition of, for example, dexamethasone (0.5-0.1 μM) and hydrocortisone (5-10 μM) for 24 h. The effect of, for example, diesel particles (0.01-0.2 mg/mL) and urban dust (0.01-0.2 mg/mL) exposure was also studied in the alveolar tissue. NIST standards Diesel Particulate Matter (SRM 2975), and Urban Dust (SRM 1649a), containing both organic and inorganic components, were used as environmental irritants (FIG. 3). A BioPlex 22-Plex™ cytokine kit (Upstate) was used to quantify the cytokine levels in the collected media.
The cytokine profile of the bilayer construct prepared in a 0.33 cm^2 area Transwell™ cell culture device was compared with the alveolar epithelial cells cultured in T-25 flasks. Controls for each experiment with or without the various irritant treatments were also included in the experimental design.
The effects of immunosuppressant hormonal treatment (dexamethasone and hydrocortisone) and exposure to bacterial particles (E. coli and Staphylococcus aureus) on respiratory cells were examined by quantifying cytokine production by the mucosal tissue. […]
Using Luminex™ immunoassay technology, we simultaneously quantified the 22 cytokine and chemokines in the collected treatment media. […]

Compound | p450 (CYP1A1 and CYP2B1) activation of construct cells (CYP1A1 and CYP2B1) | activation of alveolar artificial tissue construct cells [1] | cytokine production by the native cells of the bilayer mucosal construct [2]
Cc1ccc2cc3c(ccc4ccccc43)c3c2c1CC3 [3-methylcholanthere] | activated | activated | –
O=c1cc(-c2ccccc2)oc2ccc3ccccc3c12 [BNF, β-napthophenol] | less activated | less activated | –
C[C@]12CCC(=O)C=C1CC[C@@H]1[C@@H]2[C@@H](O)C[C@@]2(C)[C@H]1CC[C@]2(O)C(=O)CO [hydrocortisone] | – | – | significant decrease
